Measured values as given in article PMC10530208 (Cell reports, 2023).
Counter-ions that a name gives are not always drawn.

What was measured:
[1] = test system: HCT-8 cells; test: Initial metabolite screen: host cell numbers; format: cell-based, human; settings: 1 mM
[2] = test system: C. parvum; test: Initial screen of metabolites on C. parvum growth in HCT-8 cells; format: cell-based, Cryptosporidium parvum; settings: 1 mM or 0.1 mM, 24 hpi
[3] = test system: C. parvum; test: C. parvum growth assay in HCT-8 cells: indole analog screen and dose-response; format: cell-based, Cryptosporidium parvum; settings: for EC50: Cryptosporidium parvum, HCT-8, 24 h, read-out: Cp EC50; for Effect on Cp infection in the indole analog screen: 1 mM, HCT-8 cells
[4] = test system: C. parvum-infected GKO mice; test: Metabolite treatment of C. parvum-infected GKO mice; format: in vivo, mouse; settings: 50 mg/kg oral gavage twice daily for 7 days
[5] = test system: C. parvum; test: C. parvum growth assay in HCT-8 AhR WT vs AhR KO cell lines; format: cell-based, Cryptosporidium parvum; settings: 1 mM; 24 h
[6] = test system: C. parvum; test: Air-liquid interface; format: cell-based, Cryptosporidium parvum; settings: for Cp growth recovery after washout / Time after washout to significant recovery in Cp growth: ALI; for Time after washout to significant recovery in Cp growth: treated at EC50 for two days; for EC50 / EC90: Cryptosporidium parvum; for EC50: read-out: Cp EC50 in ALI cultures; for EC90: read-out: Cp EC90 in ALI cultures
[7] = test system: C. parvum; test: Antibody and EdU labeling of C. parvum life cycle stages; format: cell-based, Cryptosporidium parvum; settings: EC90 concentration; for Effect on Cp life cycle progression: first 24 hpi
[8] = test system: Cp mitosome; test: MitoTracker staining of indole treated C. parvum; format: cell-based, Cryptosporidium parvum; settings: indole 1.76 mM, 7CNI 1 mM, CCCP 10 μM; 2 h or 24 h
[9] = test system: HCT-8 AhR WT cells or AhR KO cells; test: Seahorse XF Cell Energy Phenotype Test on HCT-8 AhR WT and AhR KO cells; format: cell-based, human; settings: 18 h; 0.5, 1 or 2 mM; both HCT-8 WT and AhR KO cells
[10] = test system: HCT-8 cells; test: Transcriptomics; format: cell-based, human; settings: 880 μM; 4 or 12 h; FDR p < 0.05, absolute fold change > 2
[11] = test system: HCT-8 cells; test: Seahorse metabolic assays; format: cell-based, human; settings: 18 h; indole 0.5-2 mM, 7CNI 0.25-1 mM
[12] = test system: C. parvum; test: Sliding window treatment with indoles; format: cell-based, Cryptosporidium parvum; settings: EC90 concentration
[13] = test system: HCT-8 cells; test: Host nuclei ratio with mitochondrial inhibitors; format: cell-based, human; settings: 40 μM and 20 μM
[14] = test system: C. parvum; test: C. parvum growth assay with mitochondrial inhibitors; format: cell-based, Cryptosporidium parvum; settings: read-out: Cp EC50

## CCCCC[C@H](O)/C=C/[C@H]1[C@H](O)CC(=O)[C@@H]1C/C=C\CCCC(=O)O [Prostaglandin E2]
[1]
  Host toxicity in the initial screen: significant host toxicity at 1 mM

## C[C@H](CCC(=O)O)[C@H]1CC[C@H]2[C@@H]3CC[C@@H]4C[C@H](O)CC[C@]4(C)[C@H]3CC[C@]12C [Lithocholic acid]
[2]
  Effect on Cp growth in the primary metabolite screen: significantly inhibited Cp growth
[1]
  Host toxicity in the initial screen: significant host toxicity at 1 mM

## Oc1cccc2[nH]ccc12 [4-Hydroxyindole]
[3]
  EC50: 1260 µM
[2]
  Effect on Cp growth in the primary metabolite screen: significantly inhibited Cp growth

## Cc1c[nH]c2ccccc12 [3-methylindole]
[3]
  Effect on Cp infection in the indole analog screen: did inhibit Cp

## c1ccc2[nH]ccc2c1 [Indole]
[4]
  Cp oocysts shed in the feces: no significant effect on Cp infection in vivo
  Median survival time: 17 dpi
[3]
  EC50: 411 µM
[5]
  Cp sensitivity to inhibition in AhR KO cells: remained sensitive
[2]
  Effect on Cp growth in the primary metabolite screen: significantly inhibited Cp growth
[6]; treated at 2 × EC90 for two days
  Cp growth recovery after washout: no recovery was observed
[6]
  Time after washout to significant recovery in Cp growth: 2 days
  EC50: 577 µM
  EC90: 1890 µM
[6]; treated at EC90 for two days
  Cp growth recovery after washout: Some growth recovery (though not significant)
[7]; 22 h, 1E12 labeling
  Morphology of mature merozoites: did not observe any obvious morphological defects in mature merozoites
[7]
  Effect on Cp life cycle progression: delayed progression through sequential life cycle stages
[8]
  MitoTracker staining of Cp mitosomes: significantly decreased MitoTracker staining of Cp mitosomes
[9]
  Mitochondrial basal and stressed respiratory rate: significantly impaired in a dose-dependent manner
[10]
  Downregulated genes: 11 genes
  Genes significantly differentially expressed after treatment: 68 genes
  Upregulated genes: 57 genes
[11]
  ATP production rate by glycolysis: remained similar between all treatments
  ATP production rate by the mitochondria: significant reduction in ATP production rate by the mitochondria
  Basal and maximal levels of mitochondrial respiration (OCR): significantly reduced both basal levels and maximal levels of mitochondrial respiration
  Spare respiratory capacity: diminished
  Total ATP production rate: lower total ATP production rate
[12]
  Effect on Cp growth, treatment 0–4 hpi only: neither indole nor 7CNI inhibited Cp growth
  Effect on Cp infection, treatment started 4 hpi (4–24 hpi): significantly inhibited Cp infection
[12]; 20 h before infection
  Effect on Cp infection of pre-treatment of host cells: did not affect subsequent Cp infection

## NC(=O)Cc1c[nH]c2ccccc12 [Indole-3-acetamide]
[3]
  Effect on Cp infection in the indole analog screen: exceptions

## C[C@H](CCC(=O)O)[C@H]1CC[C@H]2[C@@H]3CC[C@@H]4C[C@H](O)CC[C@]4(C)[C@H]3C[C@H](O)[C@]12C [Deoxycholic acid]
[2]
  Effect on Cp growth in the primary metabolite screen: significantly inhibited Cp growth
[1]
  Host toxicity in the initial screen: significant host toxicity at 1 mM

## O=C(O)CCc1c[nH]c2ccccc12 [Indole-3-propionic acid]
[3]
  Effect on Cp infection in the indole analog screen: did inhibit Cp

## N#CC(C#N)=NNc1cccc(Cl)c1 [CCCP, carbonyl cyanide m-chlorophenyl hydrazone]
[13]
  Host toxicity: observed host toxicity
[14]; HCT-8 cells, 24 h
  EC50: 5 µM
[8]
  MitoTracker staining of Cp mitosomes: decreases MitoTracker staining in the Cp mitosome

## N#Cc1cccc2cc[nH]c12 [7-cyanoindole]
[4]
  Body weight: weighed significantly more than vehicle- or indole-treated mice 5 and 7 dpi
  Survival rate: did not significantly increase survival rate
[6]
  Time after washout to significant recovery in Cp growth: 4 days
  EC50: 379 µM
  EC90: 688 µM
[7]
  Effect on Cp life cycle progression: delayed progression through sequential life cycle stages
[8]
  MitoTracker staining of Cp mitosomes: significantly decreased MitoTracker staining of Cp mitosomes
[11]
  ATP production rate by glycolysis: remained similar between all treatments
  ATP production rate by the mitochondria: significant reduction in ATP production rate by the mitochondria
[12]
  Effect on Cp growth, treatment 0–4 hpi only: neither indole nor 7CNI inhibited Cp growth
  Effect on Cp infection, treatment started 4 hpi (4–24 hpi): significantly inhibited Cp infection

## O=C(O)C(O)Cc1c[nH]c2ccccc12 (stereo not drawn) [indole-3-lactic acid]
[3]
  Effect on Cp infection in the indole analog screen: exceptions

## C[C@H](CCC(=O)O)[C@H]1CC[C@H]2[C@@H]3CC[C@@H]4C[C@H](O)CC[C@]4(C)[C@H]3C[C@H](O)[C@]12C [Deoxycholate, sodium deoxycholate]
[2]
  Effect on Cp growth in the primary metabolite screen: significantly inhibited Cp growth
[1]
  Host toxicity in the initial screen: significant host toxicity at 1 mM

## O=C(O)Cc1c[nH]c2ccc(O)cc12 [5-Hydroxyindole-3-acetic acid]
[2]
  Effect on Cp growth in the primary metabolite screen: no effect on Cp

## Cc1ncc(CO)c(C=O)c1O [Pyridoxal hydrochloride]
[3]
  EC50: 213 µM
[3]; host value from nuclei count
  Fold Selectivity (HCT-8 EC50 divided by Cp EC50): 44.6 fold
[2]
  Effect on Cp growth in the primary metabolite screen: significantly inhibited Cp growth

## CC[C@H]1/C=C/C=C/C[C@@H](C)[C@H](O)[C@@](C)(O)C(=O)[C@@H](C)[C@H](O)[C@@H](C)C(=O)[C@@H](C)[C@H](O)[C@@H](C)/C=C/C(=O)O[C@@H]2[C@H](C)[C@H](CC1)O[C@]1(CC[C@H](C)[C@H](C[C@@H](C)O)O1)[C@H]2C [oligomycin]
[14]; Cryptosporidium parvum, HCT-8, 24 h
  EC50: 20.6 µM
